From US5932217A, “Peptides which inhibit adhesion between leukocytes and endothelial cells” (priority 1994, dated 1999)

Experiments:
[1] = 50% rabbit plasma at 37° C.
Method: To determine the stability of the FHA II peptide, the unmodified or the acetylated-amidated peptide were incubated in 50% rabbit plasma at 37° C.

[2] = test system: Human neutrophils; test: Binding of 125I-Factor X to neutrophils
Method: Human Factor X (Sigma or Hematologic Technologies Inc.) was labeled with ^125 I using Iodogen (Pierce Chemical Co.) Human neutrophils were isolated from heparinized blood according to the manufacturer's specification using Neutrophil Isolation Medium (Cardinal Associates, Santa Fe, N.M.) and washed three times with 5 mM EDTA-phosphate-buffered saline (PBS), pH 7.2, at 4° C. To eliminate platelet contamination,neutrophils were incubated with autologous serum containing 5 mM EDTA for 30 mins. at 37° C., washed three times with ice-cold PBS, pH 7.2, and resuspended in RPMI 1640 tissue culture medium (Whittaker M. A. Bioproducts, Walkersville, Md.) at 4° C. Binding of ^125 I-Factor X to neutrophils was measured based on a method described by Altieri et al. (1991) Science 254: 1200-1202. Briefly, 200 μl of neutrophils (1.5×10^7 /ml) were supplemented with 17.5 μl of 50 mM CaCl2, stimulated with 3.5 μl of 100 μM NH2 -formyl-Met-Leu-Phe (Sigma), and mixed with 30 μl of 10.3 μg/ml ^125 I-Factor X and 100 μl of 1.75 mM of peptide. Buffer alone and a peptide of scrambled sequence served as controls in each of the 3 experiments. After incubation for 20 mins. at room temperature, neutrophil-bound ^125 I-Factor X was separated from unbound ^125 I-Factor X by centrifugation of 300 μl aliquots through 50 μl of a mixture of Hi phenyl silicone oil DC 550 and methyl silicone oil DC 200 5:1 (Nye Inc. Specialty Lubricants, New Bedford, Mass.) at 12,000×g for 2 mins. Aliquots of the supernatant (cell free ^125 I-Factor X) and the cell pellet (cell bound ^125 I-Factor X) were counted in a gamma-counter. Nonspecific binding (~50,000 cpm) was determined by adding a 100 fold excess of unlabeled Factor X, and subtracted from total radioactivity (~500,000 cpm for controls).

Substance	concentration over time in plasma [1]	inhibition of 125I-Factor X binding to neutrophils ([2]; peptides 0.5 mM, native FHA 0.3 μM, mAb IB4 100 μg/ml) [%]	IC50 ([2]; read-out: IC50 of inhibition of 125I-Factor X binding) [nM]
Ac-ETKEVDG-NH2 [Acetyl/Amide-FHA II]	remained unchanged over 48 hours		
Filamentous hemagglutinin [native FHA]		70±4	100
